Laboratory results from patent US20080306162A1, “Treatment of Inflammatory Disorders and Pain” (priority 2005, published 2008).

Columns and labels:
TNFα = assay: LPS mouse assay, serum TNFα by ELISA; assay type: in vivo, Balb C ByJ mice; conditions: i.p. or oral 30 minutes before 1 mg/kg LPS i.p., serum 2 hours after LPS
Method: (§1) 7 week old Balb C ByJ mice (24-28 g) were administered, either by i.p. (5 ml/kg) or oral (10 ml/kg) administration, with vehicle or test article. 30 minutes later these animals were challenged with an intraperitoneal injection of 1 mg/kg LPS. 2 hours after LPS challenge blood samples were collected under light isoflurane anaesthesia into normal tubes by retro-orbital puncture. Samples were allowed to clot at room temperature and then spun at 6000 g for 3 min at 4° C. Serum was stored at −20° C. until use. Serum TNFα and IL-10 levels were analysed in duplicate by ELISA technique.

IL-10 = assay: LPS mouse assay, serum IL-10 by ELISA; assay type: in vivo, Balb C ByJ mice; conditions: i.p. or oral 30 minutes before 1 mg/kg LPS i.p., serum 2 hours after LPS
Method: as §1

male Wistar rats = assay: Carrageenan paw assay; assay type: in vivo; conditions: rat
Method: Fasted (18 hour) male Wistar rats (105-130 g) were weighed and a basal mercury plethysmometer reading was taken of the right hind paw by submerging the paw in the mercury up to the tibiotarsal joint. Subsequently, vehicles, reference items and test articles were administered by oral gavage (10 ml/kg). Half an hour after treatment, 0.1 ml of 2% carrageenan in 0.9% saline was injected into the subplanatar area of the right hind paw. The right paw was measured again with the plethysmometer at 1, 2, 3, 4 and 5 hours after carrageenan administration.

## CC(C)(CO)NCC(O)c1cc(Cl)c(N)c(Cl)c1 (racemic) [Example 1, 2-[2-(4-amino-3,5-dichlorophenyl)-2-hydroxyethylamino]-2-methylpropan-1-ol]
TNFα; 10 mg/kg
  inhibition of TNFα production: 60%
TNFα; 30 mg/kg
  inhibition of TNFα production: 61%
IL-10; 10 mg/kg
  IL-10 production potentiated: 417%
IL-10; 30 mg/kg
  IL-10 production potentiated: 392%

## CC(C)(CO)NCC(O)c1cc(Cl)c(N)c(Cl)c1 (single isomer, unassigned) [2-[2-(4-amino-3,5-dichlorophenyl)-2-hydroxyethylamino]-2-methylpropan-1-ol]
Male Wistar rats; 0.3 mg/kg oral gavage
  inhibition in the carageenan paw assay: 18%
Male Wistar rats; 1 mg/kg oral gavage
  inhibition in the carageenan paw assay: 28%
Male Wistar rats; 3 mg/kg oral gavage
  inhibition in the carageenan paw assay: 26%
Male Wistar rats; 10 mg/kg oral gavage
  inhibition in the carageenan paw assay: 59%
Male Wistar rats; 30 mg/kg oral gavage
  inhibition in the carageenan paw assay: 71%
Male Wistar rats; 0.3 to 30 mg/kg oral gavage
  anti-inflammatory dose response in the carageenan paw assay: clear anti-inflammatory dose response curve

## CC(C)(CO)NCC(O)c1ccccc1 (stereo not shown) [Example 2, 2-(2-phenyl-2-hydroxyethylamino)-2-methyl-propan-1-ol]
TNFα; 10 mg/kg
  inhibition of TNFα production: 47%
TNFα; 30 mg/kg
  inhibition of TNFα production: 58%
IL-10; 10 mg/kg
  IL-10 production potentiated: 345%
IL-10; 30 mg/kg
  IL-10 production potentiated: 366%

## CC(C)(CO)NCC(O)c1ccc(F)cc1 (stereo not shown) [Example 3, 2-[2-(4-fluorophenyl)-2-hydroxyethylamino]-2-methylpropan-1-ol]
TNFα; 10 mg/kg
  inhibition of TNFα production: 37%
TNFα; 30 mg/kg
  inhibition of TNFα production: 37%
IL-10; 10 mg/kg
  IL-10 production potentiated: 106%
IL-10; 30 mg/kg
  IL-10 production potentiated: 125%

## CC(C)Cc1ccc(C(C)C(=O)O)cc1 (stereo not shown) [Ibuprofen, reference compound]
Male Wistar rats; 100 mg/kg oral gavage
  anti-inflammatory in the carageenan paw assay: 38%
